Test results reported in publication PMC10747300, “Identification of Indazole-Based Thiadiazole-Bearing Thiazolidinone Hybrid Derivatives: Theoretical and Computational Approaches to Develop Promising Anti-Alzheimer’s Candidates” (Pharmaceuticals, 2023).
Several values for one entry are separate records, joined by “and”; a condition that tells them apart may be missing. Equal values may be shown once. Read-outs that look alike come from different tables or passages of the source.

Tests used:
[1] = target: T1, butyrylcholinesterase (BuChE) (Homo sapiens, UniProt P06276); experiment: biochemical
T1 construct: purchased Sigma 9001-08-5 (this is the CAS number of cholinesterase, not a catalogue number)
T1 sequence (P06276 29-602): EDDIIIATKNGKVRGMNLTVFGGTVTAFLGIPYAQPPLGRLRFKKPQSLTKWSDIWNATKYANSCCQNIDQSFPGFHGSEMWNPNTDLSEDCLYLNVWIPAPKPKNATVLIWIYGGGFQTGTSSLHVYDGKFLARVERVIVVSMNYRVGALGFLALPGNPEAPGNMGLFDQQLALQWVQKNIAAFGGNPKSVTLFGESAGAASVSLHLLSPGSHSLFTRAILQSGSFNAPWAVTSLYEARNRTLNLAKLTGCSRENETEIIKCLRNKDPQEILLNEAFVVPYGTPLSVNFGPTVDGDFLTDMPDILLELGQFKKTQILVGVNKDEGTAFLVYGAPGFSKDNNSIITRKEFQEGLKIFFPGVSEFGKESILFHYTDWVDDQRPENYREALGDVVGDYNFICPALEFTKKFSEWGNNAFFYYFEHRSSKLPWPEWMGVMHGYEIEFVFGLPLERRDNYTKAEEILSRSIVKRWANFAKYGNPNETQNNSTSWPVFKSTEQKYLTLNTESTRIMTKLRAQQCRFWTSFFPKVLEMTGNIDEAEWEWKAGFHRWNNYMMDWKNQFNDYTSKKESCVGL
Protocol: (§1) A spectrophotometric analysis was conducted by Ellman et al. to determine the inhibition of ChEs (AChE and BuChE). […] An incubation of 15 min was performed at room temperature with 140 L of sodium phosphate buffer (pH 8.0), 20 L of AChE/BuChE solution, and 20 L of the test sample. AChE/BuChE solutions containing DTNB were introduced into the 10 L solution to initiate the reaction. […] A percentage of inhibition was calculated using the ratio of enzyme activity in the presence of the test sample (E), minus enzyme activity without the test sample (S), expressed as E–S/E100. Each substance’s inhibition of substrate hydrolysis by ChE was quantified using its IC50 value (g/mL) or M. Compounds with the same IC50 values are calculated using the same standardized plot.

[2] = target: T2, acetylcholinesterase (AChE) (Homo sapiens, UniProt P22303); experiment: biochemical
T2 construct: purchased Sigma 9000-81-1 (so in the source); this is the CAS number of acetylcholinesterase, not a catalogue number
T2 sequence (P22303 32-614): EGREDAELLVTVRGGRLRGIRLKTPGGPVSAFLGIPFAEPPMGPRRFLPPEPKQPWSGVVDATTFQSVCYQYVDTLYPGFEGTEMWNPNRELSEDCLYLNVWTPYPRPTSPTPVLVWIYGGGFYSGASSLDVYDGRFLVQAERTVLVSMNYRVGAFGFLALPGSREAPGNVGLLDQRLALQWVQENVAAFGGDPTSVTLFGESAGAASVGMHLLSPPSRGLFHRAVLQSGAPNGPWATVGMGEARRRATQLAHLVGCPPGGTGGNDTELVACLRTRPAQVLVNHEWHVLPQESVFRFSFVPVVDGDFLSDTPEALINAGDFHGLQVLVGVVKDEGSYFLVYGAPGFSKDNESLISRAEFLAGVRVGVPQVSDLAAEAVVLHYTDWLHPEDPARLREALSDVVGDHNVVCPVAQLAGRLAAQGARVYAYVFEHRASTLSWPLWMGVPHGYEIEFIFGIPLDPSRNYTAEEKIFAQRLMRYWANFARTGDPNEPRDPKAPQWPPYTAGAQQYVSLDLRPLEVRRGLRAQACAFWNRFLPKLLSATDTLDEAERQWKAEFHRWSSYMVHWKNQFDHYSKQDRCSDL
Protocol: as §1

[3] = printed without unit in Figure 2 (second value of each pair), read-out: BuChE IC50
[4] = substrate BTCh, DTNB, pH 8.0, 15 min incubation, read-out: BuChE IC50 ± SEM
[5] = printed without unit in text / Figure 2, read-out: AChE IC50
[6] = substrate ATCh, DTNB, pH 8.0, 15 min incubation, read-out: AChE IC50 ± SEM

Row | Compound | IC50 [1, 3] [nM] | IC50 [1, 4] | IC50 [2, 5] [nM] | IC50 [2, 6] | AChE IC50 ([2]; printed without unit in text / Figure 2)
1 | O=C1N/C(=N/c2nnc(-c3ccc4[nH]ncc4c3)s2)S/C1=C/c1cccc(F)c1 [Compound 16, (Z)-2-((5-(1H-Indazol-5-yl)-1,3,4-Thiadiazol-2-yl)Imino)-5-((E)-3-Fluorobenzylidene)Thiazolidin-4-One] | 1200 ± 470 | 1200 ± 470 nM | 1200 ± 580 | 1200 ± 580 nM | –
2 | O=C1N/C(=N/c2nnc(-c3ccc4[nH]ncc4c3)s2)S/C1=C/c1ccccc1F [Compound 15, (Z)-2-((5-(1H-Indazol-5-yl)-1,3,4-Thiadiazol-2-yl)Imino)-5-((E)-2-Fluorobenzylidene)Thiazolidin-4-One] | 1270 ± 400 | 1270 ± 400 nM | 1240 ± 360 | 1240 ± 360 nM | –
3 | O=C1N/C(=N/c2nnc(-c3ccc4[nH]ncc4c3)s2)S/C1=C/c1ccc([N+](=O)[O-])cc1 [Compound 7, (Z)-2-((5-(1H-Indazol-5-yl)-1,3,4-Thiadiazol-2-yl)Imino)-5-((E)-4-Nitrobenzylidene)Thiazolidin-4-One] | – | 1570 ± 280 nM | – | 1400 ± 310 nM | –
4 | O=C1N/C(=N/c2nnc(-c3ccc4[nH]ncc4c3)s2)S/C1=C/c1cccc2ccccc12 [Compound 13, (2Z,5E)-2-((5-(1H-Indazol-5-yl)-1,3,4-Thiadiazol-2-yl)Imino)-5-(Naphthalen-1-Ylmethylene)Thiazolidin-4-One] | – | – | – | – | no discernable activity
5 | O=C1N/C(=N/c2nnc(-c3ccc4[nH]ncc4c3)s2)S/C1=C/c1ccc(Br)c([N+](=O)[O-])c1 [Compound 17, (Z)-2-((5-(1H-Indazol-5-yl)-1,3,4-Thiadiazol-2-yl)Imino)-5-((E)-4-Bromo-3-Nitrobenzylidene)Thiazolidin-4-One] | – | 20500 ± 860 nM | 22300 ± 1000 | 22300 ± 1000 nM | –
6 | Cc1cc(Br)cc(/C=C2/S/C(=N\c3nnc(-c4ccc5[nH]ncc5c4)s3)NC2=O)c1 [Compound 12, (Z)-2-((5-(1H-Indazol-5-yl)-1,3,4-Thiadiazol-2-yl)Imino)-5-((E)-3-Bromo-5-Methylbenzylidene)Thiazolidin-4-One] | – | 26200 ± 670 nM | 25120 ± 180 | 25120 ± 180 nM | –
7 | O=C1N/C(=N/c2nnc(-c3ccc4[nH]ncc4c3)s2)S/C1=C/c1ccc(Br)cc1 [Compound 10, (Z)-2-((5-(1H-Indazol-5-yl)-1,3,4-Thiadiazol-2-yl)Imino)-5-((E)-4-Bromobenzylidene)Thiazolidin-4-One] | – | 25000 ± 440 nM | 24680 ± 120 | 24680 ± 120 nM | –
8 | O=C1N/C(=N/c2nnc(-c3ccc4[nH]ncc4c3)s2)S/C1=C/c1cc(Cl)c(Cl)c([N+](=O)[O-])c1 [Compound 1, (Z)-2-((5-(1H-Indazol-5-yl)-1,3,4-Thiadiazol-2-yl)Imino)-5-((E)-3,4-Dichloro-5-Nitrobenzylidene)Thiazolidin-4-One] | 1190 ± 420 | 890 nM and 1190 nM | – | 860 nM and 1100 nM | –
9 | Cc1cc(C)cc(/C=C2/S/C(=N\c3nnc(-c4ccc5[nH]ncc5c4)s3)NC2=O)c1 [Compound 4, (Z)-2-((5-(1H-Indazol-5-yl)-1,3,4-Thiadiazol-2-yl)Imino)-5-((E)-3,5-Dimethylbenzylidene)Thiazolidin-4-One] | – | 8840 ± 980 nM | 8600 ± 1050 | 8600 ± 1050 nM | –
10 | Cc1ccc(/C=C2/S/C(=N\c3nnc(-c4ccc5[nH]ncc5c4)s3)NC2=O)c(C)c1 [Compound 3, (Z)-2-((5-(1H-Indazol-5-yl)-1,3,4-Thiadiazol-2-yl)Imino)-5-((E)-2,4-Dimethylbenzylidene)Thiazolidin-4-One] | – | 8800 ± 130 nM | 8260 ± 400 | 8260 ± 400 nM | –
11 | COc1cccc(/C=C2/S/C(=N\c3nnc(-c4ccc5[nH]ncc5c4)s3)NC2=O)c1 [Compound 6, (Z)-2-((5-(1H-Indazol-5-yl)-1,3,4-Thiadiazol-2-yl)Imino)-5-((E)-3-Methoxybenzylidene)Thiazolidin-4-One] | – | 13000 ± 150 nM | 12700 ± 330 | 12700 ± 330 nM | –
12 | O=C1N/C(=N/c2nnc(-c3ccc4[nH]ncc4c3)s2)S/C1=C/c1ccc(C(F)(F)F)cc1 [Compound 9, (Z)-2-((5-(1H-Indazol-5-yl)-1,3,4-Thiadiazol-2-yl)Imino)-5-((E)-4-(Trifluoromethyl)Benzylidene)Thiazolidin-4-One] | 890 ± 120 | 890 ± 120 nM | 860 ± 300 | 860 ± 300 nM | –
13 | O=C1N/C(=N/c2nnc(-c3ccc4[nH]ncc4c3)s2)S/C1=C/c1cccc(Br)c1 [Compound 11, (Z)-2-((5-(1H-Indazol-5-yl)-1,3,4-Thiadiazol-2-yl)Imino)-5-((E)-3-Bromobenzylidene)Thiazolidin-4-One] | – | 27080 ± 190 nM | 26700 ± 840 | 26700 ± 840 nM | –
14 | COc1ccc(/C=C2/S/C(=N\c3nnc(-c4ccc5[nH]ncc5c4)s3)NC2=O)cc1 [Compound 5, (Z)-2-((5-(1H-Indazol-5-yl)-1,3,4-Thiadiazol-2-yl)Imino)-5-((E)-4-Methoxybenzylidene)Thiazolidin-4-One] | – | 10600 ± 740 nM | 10400 ± 980 | 10400 ± 980 nM | –
15 | O=C1N/C(=N/c2nnc(-c3ccc4[nH]ncc4c3)s2)S/C1=C/c1ccc(F)cc1O [Compound 14, (Z)-2-((5-(1H-Indazol-5-yl)-1,3,4-Thiadiazol-2-yl)Imino)-5-((E)-4-Fluoro-2-Hydroxybenzylidene)Thiazolidin-4-One] | 980 ± 480 | 1190 nM and 980 nM | 920 ± 100 | 1100 nM and 920 nM | –
16 | O=C1N/C(=N/c2nnc(-c3ccc4[nH]ncc4c3)s2)S/C1=C/c1ccccc1Cl [Compound 2, (Z)-2-((5-(1H-Indazol-5-yl)-1,3,4-Thiadiazol-2-yl)Imino)-5-((E)-2-Chlorobenzylidene)Thiazolidin-4-One] | – | 3360 ± 280 nM | 3110 ± 590 | 3110 ± 590 nM | –
17 | O=C1N/C(=N/c2nnc(-c3ccc4[nH]ncc4c3)s2)S/C1=C/c1ccc(Cl)c(Cl)c1 [Compound 8, (Z)-2-((5-(1H-Indazol-5-yl)-1,3,4-Thiadiazol-2-yl)Imino)-5-((E)-3,4-Dichlorobenzylidene)Thiazolidin-4-one] | – | 1290 ± 410 nM | – | 1220 ± 640 nM | –
